Where no end group is shown, it is not given here.
Tests used:
[1] = tested on: B. cepacia; format: cell-based
Description: (§1) To test the antimicrobial activity of the fusion peptides against target bacteria, a panel of bacteria, both gram positive and gram negative, were tested.

[2] = tested on: E. coli 3132 (wt); format: cell-based
Description: as §1

[3] = tested on: E. coli Aw405; format: cell-based
Description: as §1

[4] = tested on: E. coli Mg1665 (smooth); format: cell-based
Description: as §1

[5] = tested on: E. coli W3110 ampR; format: cell-based
Description: as §1

[6] = tested on: E. coli W3110; format: cell-based
Description: as §1

[7] = tested on: Klebsiella Kay2026; format: cell-based
Description: as §1

[8] = tested on: Myxococcus; format: cell-based
Description: as §1

[9] = tested on: P. aeruginosa Pak (ATCC); format: cell-based
Description: as §1

[10] = tested on: P. aeruginosa Pak; format: cell-based; details: for MBC: Pak
Description: as §1

[11] = tested on: P. fluorescens 1088; format: cell-based
Description: as §1

[12] = tested on: P. fluorescens 1089; format: cell-based
Description: as §1

[13] = tested on: P. mendocina; format: cell-based
Description: as §1

[14] = tested on: P. tabaci; format: cell-based
Description: as §1

[15] = tested on: S. aureus; format: cell-based
Description: as §1

[16] = tested on: S. mitis; format: cell-based
Description: as §1

[17] = tested on: S. mutans 140; format: cell-based
Description: as §1

[18] = tested on: S. mutans 159; format: cell-based
Description: as §1

[19] = tested on: S. oralis; format: cell-based
Description: as §1

[20] = tested on: S. sanguis; format: cell-based
Description: as §1

[21] = tested on: Salmonella Lt2 (ATCC); format: cell-based
Description: as §1

[22] = tested on: Y. entercolitica; format: cell-based
Description: as §1

[23] = tested on: P. mendocina; format: cell-based, Pseudomonas mendocina
Description: (§2) Briefly, varying concentrations of peptide G10, G10CatC, or G10CatN was added to 10^5 of target bacterial cells and survivors were counted by plating samples after 0.5, 1, 2 and 4 minutes of peptide exposure.

[24] = tested on: P. mendocina; test: Long-term time-kill experiment (up to 2 h); format: cell-based, Pseudomonas mendocina; details: for time to kill all input P. mendocina cells: 3 μM peptide; for surviving P. mendocina cells: 9 μM peptide
Description: Similar to the short-term kinetic studies described above, treatment with 3 μM G10CatC killed all input P. mendocina cells within 30 min, in contrast, it took 2 h for G10 alone to kill all input P. mendocina cells at the same concentration.

[25] = tested on: E. coli W3110; test: Selective killing in mixed culture of P. mendocina and E. coli W3110; format: cell-based; details: 6 μM peptide, 4 min; mixed with P. mendocina; preliminary results
Description: (§3) To test if G10CatC can selectively kill its target bacteria in a mixed culture, 10^5 of P. mendocina and E. coli W3110 cells were mixed and treated with 6 μM G10 or G10CatC peptides. Samples were taken at 30 sec. 1 min, 2 min, and 4 min, and survivors were counted by plating assays.

[26] = tested on: P. mendocina; test: as above; format: cell-based; details: 6 μM peptide, 4 min; mixed with E. coli W3110; preliminary results
Description: as §3

[27] = tested on: S. mutans cells; test: Selective killing in mixed culture of PAK and S. mutans cells; format: cell-based; details: 9 μM peptide, within 4 min; mixed with PAK cells
Description: (§4) In contrast, G10CatC killed over 90% of PAK cells, but none of S. mutans cells.

[28] = tested on: PAK cells; format: cell-based, Pseudomonas aeruginosa PAK; details: 18 μM peptide, up to 4 min
Description: as §2

[29] = tested on: PAK cells; test: Selective killing in mixed culture of PAK and S. mutans cells; format: cell-based, P. aeruginosa; details: 9 μM peptide, within 4 min; mixed with S. mutans
Description: as §4

[30] = tested on: Host cells; test: Minimal Inhibitory Concentrations; format: cell-based
[31] = tested on: S. mutans
[32] = tested on: S. sanguis
[33] = tested on: PAK cells; test: Competition-binding experiment, labeled vs unlabeled Cat-1, fluorescent microscopy; design: species or system P. aeruginosa
Description: To further confirm the specificity of Cat-1 binding to Pak cells, competition-binding experiments were conducted. Labeled Cat-1 was mixed with increasing concentrations of unlabeled Cat-1, and fluorescent labeling of the target bacterial cells was measured by fluorescent microscopy.

[34] = Antimicrobial activity of targeting peptide alone; format: cell-based

Row | Molecule | MBC [1] [µM] | MBC [2] [µM] | MBC [3] [µM] | MBC [4] [µM] | MBC [5] [µM] | MBC [6] [µM] | MBC [7] [µM] | MBC [8] [µM] | MBC [9] [µM] | MBC [10] [µM] | MBC [11] [µM] | MBC [12] [µM] | MBC [13] [µM] | MBC [14] [µM] | MBC [15] [µM] | MBC [16] [µM] | MBC [17] [µM] | MBC [18] [µM] | MBC [21] [µM] | MBC [22] [µM] | also measured
1 | KKHRKHRKHRKHGGSGGSKNLRRIIRKGIHIIKKYG [G10CatC] | 13 | 5.8 | 11.6 | 2.9 | 2.9 | 2.81 | 11.6 to 23.2 | >11.6 | 4.9 | 1.4 to 2.9 | 1.45 | 2.9 | 1.4 to 2.4 | 2.175 | >23.2 | >58 | 3.6 to 7.25 | 3.6 to 7.25 | 11.6 to 23.2 | 23.2 | enhancement of killing activity relative to G10 ([10]; against Pak, from MBC): 38 fold; MBC relative to G10 alone (higher) ([13]; P. mendocina): 2 ×; decrease of killing activity relative to G10 ([13]; against P. mendocina, from MBC): 2 fold; MBC [19]: >58 µM; MBC [20]: 3.6 to 7.25 µM; time to reduce live P. mendocina cells to below detectable levels ([23]; 3 μM peptide): ≤ 4 min; time to kill all input P. mendocina cells [24]: ≤ 30 min; surviving P. mendocina cells ([24]; after 2 minutes of treatment): no surviving P. mendocina cells were recovered; live W3110 cells in mixed culture [25]: remained nearly unchanged; live P. mendocina cells in mixed culture [26]: no live P. mendocina cells could be detected; killing of S. mutans cells in mixed culture [27]: none
2 | KNLRRIIRKGIHIIKKYG [G10, KNLRRIIRKGIHIIKKYG, reference compound] | 23 | 11.25 | 2.8 | 2.8 | 2.8 | 1.4 | >11.25 | >11.25 | 42.18 | 54.5 | 1.4 | >11.25 | 1.05 | 5.625 | >22.5 | >58 | 3.5 to 7.03 | 3.5 to 7.03 | >22.5 | 22.5 | MBC [19]: >58 µM; MBC [20]: 3.5 to 7.03 µM; killing activity ([23]; 3 μM peptide, within 4 min): did not display any killing activity; killing activity [28]: did not show any killing activity; time to kill all input P. mendocina cells [24]: 120 min; surviving P. mendocina cells ([24]; after 30 minutes of exposure): a significant number of cells were recovered; live W3110 cells in mixed culture [25]: did not affect the survival; live P. mendocina cells in mixed culture [26]: did not affect the survival; killing of PAK cells in mixed culture [29]: did not kill any of the cells; killing of S. mutans cells in mixed culture [27]: did not kill any of the cells
3 | C[C@H](NC(=O)[C@H](Cc1cnc[nH]1)NC(=O)[C@H](CO)NC(=O)[C@@H](N)CC(=O)O)C(=O)N[C@@H](CCCCN)C(=O)N[C@@H](CCCNC(=N)N)C(=O)N[C@@H](Cc1cnc[nH]1)C(=O)N[C@@H](Cc1cnc[nH]1)C(=O)NCC(=O)N[C@@H](Cc1ccc(O)cc1)C(=O)N[C@@H](CCCCN)C(=O)N[C@@H](CCCNC(=N)N)C(=O)N[C@@H](CCCCN)C(=O)N[C@@H](Cc1ccccc1)C(=O)N[C@@H](Cc1cnc[nH]1)C(=O)N[C@@H](CCC(=O)O)C(=O)N[C@@H](CCCCN)C(=O)N[C@@H](Cc1cnc[nH]1)C(=O)N[C@@H](Cc1cnc[nH]1)C(=O)N[C@@H](CO)C(=O)N[C@@H](Cc1cnc[nH]1)C(=O)N[C@@H](CCCNC(=N)N)C(=O)NCC(=O)N[C@@H](Cc1ccc(O)cc1)C(=O)O [Histatin 5, DSHAKRHHGY KRKFHEKHHS HRGY] |  |  |  |  |  |  |  |  |  |  |  |  |  |  |  |  |  |  |  |  | Minimal Inhibitory Concentrations [30]: >50 µM; Minimal Inhibitory Concentrations [31]: ~10 µM; Minimal Inhibitory Concentrations [32]: ~10 µM
4 | KKHRKHRKHRKH (Design peptide) [Cat-1, 61] |  |  |  |  |  |  |  |  |  |  |  |  |  |  |  |  |  |  |  |  | fluorescent signal of labeled Cat-1 on PAK cells ([33]; 10× molar excess unlabeled Cat-1): completely abolished; fluorescent signal of labeled Cat-1 on PAK cells ([33]; equal molar concentration of unlabeled Cat-1 added): reduced; antimicrobial activity [34]: does not have any antimicrobial activity
5 | KNLRRIIRKGIHIIKKYGGGSGGSKKHRKHRKHRKH [G10CatN] | 11.6 | 11.6 | >23.2 | >23.2 |  | >11.6 | >11.6 | >11.6 | 17.4 | 45 | 1.45 | 11.6 | 2.8 | >11.6 | >23.2 |  |  |  | >23.2 | >23.2 | killing ([23]; any concentration tested, through 4 minutes): no killing

From patent US7569542B2, “Anti-microbial targeting chimeric pharmaceutical” (priority 1999, dated 2009)
